One molecule from patent publication US9750728B2, “Method and pharmaceutical composition for inhibiting PI3K/AKT/mTOR signaling pathway” (TARGETED THERAPEUTICS, LLC, priority 2012, dated 2017) can be followed below.

Entries after “also recorded” stand apart in the source; their conditions may differ.

Format in all cases: cell-based
The subject of one assay is MDAMB231. In words: MTT cell viability assay. The settings on record: MDAMB231, different doses, 4 days. On the procedure: (§1) 1.1. ZPP and Y29794 induces cytotoxicity to cancer cells by MTT analysis of cell viability. Cells were placed in 96-well plates (3×10^3 cells/well) in octuplicate. The cells were then treated with vehicle or different doses of ZPP for 4 days. Cells were then loaded with 1.2 mM MTT (4,5-Dimethylthiazol-2-vn-2,5-diphenvltetrazolium bromide, a yellow tetrazole) in phenol red-free medium for 4 hours. The cells were then lysed in 10% SDS/0.01M HCL. MTT absorbance (570 nm spectrum) was measured by a microplate reader. The relative absorbance is normalized to the control (vehicle-treated) to indicate relative cell viability. ZPP was purchased from Biomol (Plymouth Meeting, Pa., USA). MTT was purchased from Sigma-Aldrich. Panc-1 and Capan-1 pancreatic cancer cell line, MCF7 and T47D breast cancer cell lines, A549 and HI 703 lung cancer Cell lines were purchased from American Type Culture Collection (ATCC, USA) preparation of pancreatic cancer cell line PK-9 have been disclosed, e.g., Kobari M et al, (1986) Tohoku J Exp Med. 150: 231-248; Etoh T et al, (2003) Clin Cancer Res 9; 1218; Arafat H. et al, (2011) Surgery 150 (2): 306-315. Cells were grown in Dulbecco's Modified. Eagle's (DMEM) medium (Invitrogen, Carlsbad, Calif.) containing 10% fetal bovine serum (FBS) (Hyclone, purchased from Thermo Fisher Scientific, Inc). […] In similar experiments, the cells were treated with different doses of Y29794 for 4 days and analyzed for MTT absorbance. Y29794 oxalate was purchased from Tocris Biosciences (Bristol, UK).
(Tetrazolium dyes change colour on reduction, which living cells bring about.)

The next assay deals with MCF7. As to the kind of experiment: MTT cell viability assay. The settings on record: MCF7, different doses, 4 days. The method, then: as §1
The subject of a further assay is TD47. As to the kind of experiment: MTT cell viability assay. The note with it: TD47, different doses, 4 days. The method, then: as §1
The test system of another assay is AsPC-1. As to the kind of experiment: MTT cell viability assay. The note with it: AsPC-1, different doses, 4 days. The method, then:
as §1

In another assay the test system is A549. As to the kind of experiment: MTT cell viability assay. The settings on record: A549, different doses, 4 days. On the procedure:
as §1

The next assay deals with PK-9. In words: MTT cell viability assay. The note with it: PK-9, different doses, 4 days. The method, then: as §1
The next assay concerns Capan-1. As to the kind of experiment: MTT cell viability assay. The note with it: Capan-1, different doses, 4 days. The method, then:
as §1

Another assay relates to H1703. In words: MTT cell viability assay. The settings on record: H1703, different doses, 4 days. The method, then: as §1
In a further assay the test system is IRS-1. As to the kind of experiment: Immunoblot analysis of IRS-1 (protein, phosphorylation, half-life, p85 coimmunoprecipitation). (Immunoblotting shows a protein as a band on a membrane.)
Assay [1] relates to PI3K. In words: PI3K kinase assay in anti-IRS-1 immunoprecipitates. The note with it: Panc-1, 24 hours; ZPP 200 μM, Y29794 0.5 μM or rapamycin alone. On the procedure: PI3K kinase assay kit (Calbiochem, Bilerica, Mass., USA) was used to measure the IRS-1-associated or p85-associated PI3K kinase activity in cells. The indicated cells were treated with different conditions for 24 hours. The cells were rinsed three times with pre-cooled PBS, lysed in 500 μl of lysis buffer (150 mmol/L Nacl, 1% Triton-x-100, 50 mmol/1 Tris (pH8.0, 1 mmol/L PMSF, 1 μg/L aprotinin, 1 μg/Lleupeptin, 1 μg/L peptain). Cell lysates (500 μg, in triplicate) of were used for anti-IRS-1 or anti-p85 immunoprecipitation. The immunoprecipitates were resuspended in 200 μl assay buffer and mixed with the fluorescence-labeled PI3K substrate BODIPY-TMR-phosphatidylinositol (100 μM) and ATP (37° C.) for 1 hour. The fluorescence intensity was measured with a fluorometer (excitation wavelength of 540 nm, emission wavelength […]). The difference between fluorescence intensity between control immunoprecipitates (no lysates) and lysate immunoprecipitates was used to indicate PI3K kinase activity. IR-1 anti-rabbit antibody and rabbit anti-PI3K p85 antibody were purchased from Millipore Corporation (Billerica, Mass., USA). Panc-1 anti-p85 immunoprecipitates were used for PI3K kinase assay (FIG. 12) and immunoblot analysis (FIG. 12). Rapamycin treatment in control cells increased PI3K kinase activity (P<0.01). […]

In assay [2] the test system is PI3K. As to the kind of experiment: PI3K kinase assay in anti-p85 immunoprecipitates. The settings on record: Panc-1, 24 hours. On the procedure:
PI3K kinase assay kit (Calbiochem, Bilerica, Mass., USA) was used to measure the IRS-1-associated or p85-associated PI3K kinase activity in cells. The indicated cells were treated with different conditions for 24 hours. The cells were rinsed three times with pre-cooled PBS, lysed in 500 μl of lysis buffer (150 mmol/L Nacl, 1% Triton-x-100, 50 mmol/1 Tris (pH8.0, 1 mmol/L PMSF, 1 μg/L aprotinin, 1 μg/Lleupeptin, 1 μg/L peptain). Cell lysates (500 μg, in triplicate) of were used for anti-IRS-1 or anti-p85 immunoprecipitation. The immunoprecipitates were resuspended in 200 μl assay buffer and mixed with the fluorescence-labeled PI3K substrate BODIPY-TMR-phosphatidylinositol (100 μM) and ATP (37° C.) for 1 hour. The fluorescence intensity was measured with a fluorometer (excitation wavelength of 540 nm, emission wavelength […]). The difference between fluorescence intensity between control immunoprecipitates (no lysates) and lysate immunoprecipitates was used to indicate PI3K kinase activity. IR-1 anti-rabbit antibody and rabbit anti-PI3K p85 antibody were purchased from Millipore Corporation (Billerica, Mass., USA). Panc-1 anti-p85 immunoprecipitates were used for PI3K kinase assay (FIG. 12) and immunoblot analysis (FIG. 12). Rapamycin treatment in control cells increased PI3K kinase activity (P<0.01).

In another assay the test system is Panc-1. As to the kind of experiment: Colony formation assay (clonogenic assay). The method, then: 1.2. Colony formation assay (clonogenic assay) was used to analyze the effect of ZPP or Y29794 on cancer cell survival. 10^3 Panc-1 cells were plated in 100 mm petri dish in triplicate fed with 10 ml of DMEM containing 10% FBS. The cells were then treated by ZPP for 7 days and cultured for additional three weeks. Cells were then rinsed three times with PBS, fixed with 100% ethanol for 15 min, and stained with 2% crystal violet ethanol solution. The stained colonies were counted. All the results are statistically analyzed by one way ANOVA and two tailed t-test.

In the case of `CC(C)c1ccc(C(=O)c2cccs2)c(SCCCCCCCCN(C)C)n1` [Y29794, [2-[8-(dimethylamino)octylsulfanyl]-6-propan-2-ylpyridin-3-yl]-thiophen-2-ylmethanone], the “MTT absorbance (relative cell viability)” value in the assay with MDAMB231, with MCF7, in the assay on TD47, in the assay on AsPC-1, in the assay with A549 and with PK-9 was “dose-dependent cytotoxicity” throughout. The “MTT absorbance (relative cell viability)” value with Capan-1 and in the assay with H1703 was “dose-dependent cytotoxicity” each time. In addition, the IRS-1 protein result in the assay with IRS-1 (Capan-1, Y29794 1 μM (FIG. 19A)) is recorded as “reduces”; in the assay on IRS-1 (PK-9, Y29794 1 μM (FIG. 19A)), “reduces”. Besides, in the assay on PI3K [1], the “IRS-1-associated PI3K activity” value was “reduce; also recorded: decreased”. Further, the “PI3K kinase activity (p85-associated)” value in the assay on PI3K [2] (ZPP 200 μM, Y29794 0.5 μM or rapamycin alone, vs vehicle) is “reduced; also recorded: significantly lower”. In addition, the “rapamycin-induced increase in PI3K kinase activity (p85-associated)” value in the assay on PI3K [2] (rapamycin with ZPP 200 μM or Y29794 0.5 μM) was “blocks; also recorded: inhibited”. Moreover, the “cell survival (colony formation)” value with Panc-1 (Panc-1, Y29794 25 nM in combination with rapamycin) was “significantly (P<0.01) decreased”. Besides, the “cell colonies formed at 21 days, combination” value with Panc-1 (Panc-1, various concentration of rapamycin with 25 nM Y29794, 7 days (FIG. 16C legend)) was “synergistic reduction”.
